Measured values: publication PMC5715471 (ACS chemical neuroscience, 2017)

What was measured:
A4B2 [1] = biological target: T1, A4B2 (Rattus norvegicus, UniProt P09483+P12390); assay: PDSP radioligand binding, A4B2; settings: 10 μM
A2B2 = A2B2 (Rattus norvegicus, UniProt P12389+P12390); assay: PDSP radioligand binding, A2B2; settings: 10 μM
A4B2 [2] = biological target: T1, A4B2; assay: PDSP radioligand binding, A4B2 sourced from rodent brain; settings: 10 μM
Beta2 = Beta2 (Homo sapiens, UniProt P07550); assay: PDSP radioligand binding, Beta2; settings: 10 μM
H3 = H3 (Homo sapiens, UniProt Q9Y5N1); assay: PDSP radioligand binding, H3; settings: 10 μM
Sequence of H3 (Q9Y5N1 whole entry): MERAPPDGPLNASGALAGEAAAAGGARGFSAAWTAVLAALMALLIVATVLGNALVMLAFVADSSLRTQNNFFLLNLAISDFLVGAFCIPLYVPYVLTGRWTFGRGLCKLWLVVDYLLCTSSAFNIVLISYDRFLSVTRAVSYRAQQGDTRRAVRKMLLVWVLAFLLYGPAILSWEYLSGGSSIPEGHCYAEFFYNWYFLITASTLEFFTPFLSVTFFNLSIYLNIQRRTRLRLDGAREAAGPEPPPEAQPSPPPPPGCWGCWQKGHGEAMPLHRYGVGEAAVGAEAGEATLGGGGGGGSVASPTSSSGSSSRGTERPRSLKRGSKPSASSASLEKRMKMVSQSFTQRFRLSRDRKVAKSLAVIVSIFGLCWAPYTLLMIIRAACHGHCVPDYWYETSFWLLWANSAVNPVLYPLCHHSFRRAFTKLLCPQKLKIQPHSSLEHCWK

A3B2 = A3B2 (Rattus norvegicus, UniProt P04757+P12390); assay: PDSP radioligand binding, A3B2; settings: 10 μM
AMPA = assay: PDSP radioligand binding, AMPA
Alpha1c = assay: PDSP radioligand binding, Alpha1c; settings: 10 μM
MOR = MOR (Homo sapiens, UniProt P35372); assay: PDSP radioligand binding, MOR; settings: 10 μM
M3 = M3 (Homo sapiens, UniProt P20309); assay: PDSP radioligand binding, M3; settings: 10 μM
Sequence of M3 (P20309 whole entry): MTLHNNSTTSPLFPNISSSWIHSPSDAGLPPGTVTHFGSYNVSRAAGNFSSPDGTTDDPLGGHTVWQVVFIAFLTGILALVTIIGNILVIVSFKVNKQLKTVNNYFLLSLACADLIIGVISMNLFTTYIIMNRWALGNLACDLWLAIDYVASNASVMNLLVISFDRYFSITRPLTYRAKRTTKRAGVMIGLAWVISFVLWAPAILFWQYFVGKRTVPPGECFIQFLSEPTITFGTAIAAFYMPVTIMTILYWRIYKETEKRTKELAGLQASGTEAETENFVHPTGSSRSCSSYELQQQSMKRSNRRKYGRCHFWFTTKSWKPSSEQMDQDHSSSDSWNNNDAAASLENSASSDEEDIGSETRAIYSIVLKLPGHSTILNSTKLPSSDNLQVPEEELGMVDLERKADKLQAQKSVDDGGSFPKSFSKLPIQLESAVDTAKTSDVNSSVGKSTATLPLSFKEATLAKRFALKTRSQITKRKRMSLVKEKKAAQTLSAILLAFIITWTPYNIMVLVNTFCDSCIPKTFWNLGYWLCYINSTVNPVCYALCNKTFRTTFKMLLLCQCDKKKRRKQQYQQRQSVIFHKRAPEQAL

A7 = A7 (Rattus norvegicus, UniProt Q05941); assay: PDSP radioligand binding, A7 sourced from rodent brain; settings: 10 μM
Sequence of A7 (Q05941 23-502): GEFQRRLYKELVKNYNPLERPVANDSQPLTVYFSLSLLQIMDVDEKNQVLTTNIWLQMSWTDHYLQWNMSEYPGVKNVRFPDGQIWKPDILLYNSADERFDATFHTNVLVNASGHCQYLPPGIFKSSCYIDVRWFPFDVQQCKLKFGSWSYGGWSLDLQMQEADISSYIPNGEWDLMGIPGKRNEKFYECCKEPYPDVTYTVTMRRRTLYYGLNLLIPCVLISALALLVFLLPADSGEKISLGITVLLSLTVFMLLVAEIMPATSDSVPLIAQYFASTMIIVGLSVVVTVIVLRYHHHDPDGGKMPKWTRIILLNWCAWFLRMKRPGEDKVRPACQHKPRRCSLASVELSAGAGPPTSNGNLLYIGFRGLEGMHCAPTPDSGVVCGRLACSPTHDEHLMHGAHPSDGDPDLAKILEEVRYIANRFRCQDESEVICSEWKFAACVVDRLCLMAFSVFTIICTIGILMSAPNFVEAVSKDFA

5HT2A = 5HT2A (Homo sapiens, UniProt P28223); assay: PDSP radioligand binding, 5HT2A; settings: 10 μM
Alpha1b = Alpha1b (Homo sapiens, UniProt P35368); assay: PDSP radioligand binding, Alpha1b; settings: 10 μM
Beta3 = Beta3 (Homo sapiens, UniProt P13945); assay: PDSP radioligand binding, Beta3; settings: 10 μM
Sequence of Beta3 (P13945 whole entry): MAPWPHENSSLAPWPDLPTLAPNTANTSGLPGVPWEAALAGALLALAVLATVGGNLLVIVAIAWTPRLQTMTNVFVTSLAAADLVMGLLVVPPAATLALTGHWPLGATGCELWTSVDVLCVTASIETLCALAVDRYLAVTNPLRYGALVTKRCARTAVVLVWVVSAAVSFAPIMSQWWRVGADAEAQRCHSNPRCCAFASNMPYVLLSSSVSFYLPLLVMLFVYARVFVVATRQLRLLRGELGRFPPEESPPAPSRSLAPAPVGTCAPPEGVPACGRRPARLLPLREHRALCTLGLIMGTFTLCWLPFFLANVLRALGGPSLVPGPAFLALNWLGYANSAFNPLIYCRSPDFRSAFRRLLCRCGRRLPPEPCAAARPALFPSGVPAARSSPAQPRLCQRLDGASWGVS

H1 = H1 (Homo sapiens, UniProt P35367); assay: PDSP radioligand binding, H1; settings: 10 μM
Alpha2a = Alpha2a (Homo sapiens, UniProt P08913); assay: PDSP radioligand binding, Alpha2a; settings: 10 μM
Sequence of Alpha2a (P08913 whole entry): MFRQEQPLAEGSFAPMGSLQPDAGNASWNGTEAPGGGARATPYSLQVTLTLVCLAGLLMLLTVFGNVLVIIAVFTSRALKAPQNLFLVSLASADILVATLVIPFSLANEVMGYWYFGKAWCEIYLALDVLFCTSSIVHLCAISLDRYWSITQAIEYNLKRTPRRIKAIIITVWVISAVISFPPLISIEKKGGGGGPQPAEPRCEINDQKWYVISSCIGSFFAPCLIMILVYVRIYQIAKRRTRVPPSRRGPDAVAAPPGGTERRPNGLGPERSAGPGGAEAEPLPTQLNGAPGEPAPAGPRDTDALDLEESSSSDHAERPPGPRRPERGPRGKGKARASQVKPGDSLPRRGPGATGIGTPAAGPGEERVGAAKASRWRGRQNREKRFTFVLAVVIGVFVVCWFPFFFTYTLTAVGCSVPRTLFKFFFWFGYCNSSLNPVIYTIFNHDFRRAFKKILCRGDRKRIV

V1B = V1B (Homo sapiens, UniProt P47901); assay: PDSP radioligand binding, V1B
Sequence of V1B (P47901 whole entry): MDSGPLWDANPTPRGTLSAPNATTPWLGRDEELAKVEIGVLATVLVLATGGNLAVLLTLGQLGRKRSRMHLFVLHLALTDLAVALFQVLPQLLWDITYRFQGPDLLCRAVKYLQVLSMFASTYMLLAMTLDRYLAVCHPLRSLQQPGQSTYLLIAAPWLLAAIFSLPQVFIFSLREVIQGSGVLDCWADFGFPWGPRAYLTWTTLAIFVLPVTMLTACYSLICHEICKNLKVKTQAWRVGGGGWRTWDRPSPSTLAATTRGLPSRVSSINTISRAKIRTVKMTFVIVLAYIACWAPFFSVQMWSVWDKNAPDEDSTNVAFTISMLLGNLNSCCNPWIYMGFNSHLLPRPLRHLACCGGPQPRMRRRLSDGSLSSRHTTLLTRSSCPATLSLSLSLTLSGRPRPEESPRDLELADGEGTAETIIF

SERT = SERT (Homo sapiens, UniProt P31645); assay: PDSP radioligand binding, SERT; settings: 10 μM
DOR = DOR (Homo sapiens, UniProt P41143); assay: PDSP radioligand binding, DOR; settings: 10 μM
Sequence of DOR (P41143 whole entry): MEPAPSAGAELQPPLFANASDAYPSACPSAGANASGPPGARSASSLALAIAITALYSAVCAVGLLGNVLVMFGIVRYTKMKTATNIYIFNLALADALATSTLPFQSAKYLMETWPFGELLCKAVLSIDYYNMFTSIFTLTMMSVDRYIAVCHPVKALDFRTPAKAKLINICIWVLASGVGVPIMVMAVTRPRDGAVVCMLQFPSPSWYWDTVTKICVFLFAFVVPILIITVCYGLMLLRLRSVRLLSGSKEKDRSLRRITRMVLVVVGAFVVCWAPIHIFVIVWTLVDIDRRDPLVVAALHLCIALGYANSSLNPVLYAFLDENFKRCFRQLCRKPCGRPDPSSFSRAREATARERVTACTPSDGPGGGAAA

KOR = KOR (Homo sapiens, UniProt P41145); assay: PDSP radioligand binding, KOR
PBR = PBR (Rattus norvegicus, UniProt P16257); assay: PDSP radioligand binding, PBR; settings: 10 μM
Sequence of PBR (P16257 whole entry): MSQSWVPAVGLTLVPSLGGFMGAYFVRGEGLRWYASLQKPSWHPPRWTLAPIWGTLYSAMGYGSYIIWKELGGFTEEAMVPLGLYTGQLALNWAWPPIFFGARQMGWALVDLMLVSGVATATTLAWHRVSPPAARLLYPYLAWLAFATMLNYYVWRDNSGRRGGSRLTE

T1 sequence (P09483 31-630): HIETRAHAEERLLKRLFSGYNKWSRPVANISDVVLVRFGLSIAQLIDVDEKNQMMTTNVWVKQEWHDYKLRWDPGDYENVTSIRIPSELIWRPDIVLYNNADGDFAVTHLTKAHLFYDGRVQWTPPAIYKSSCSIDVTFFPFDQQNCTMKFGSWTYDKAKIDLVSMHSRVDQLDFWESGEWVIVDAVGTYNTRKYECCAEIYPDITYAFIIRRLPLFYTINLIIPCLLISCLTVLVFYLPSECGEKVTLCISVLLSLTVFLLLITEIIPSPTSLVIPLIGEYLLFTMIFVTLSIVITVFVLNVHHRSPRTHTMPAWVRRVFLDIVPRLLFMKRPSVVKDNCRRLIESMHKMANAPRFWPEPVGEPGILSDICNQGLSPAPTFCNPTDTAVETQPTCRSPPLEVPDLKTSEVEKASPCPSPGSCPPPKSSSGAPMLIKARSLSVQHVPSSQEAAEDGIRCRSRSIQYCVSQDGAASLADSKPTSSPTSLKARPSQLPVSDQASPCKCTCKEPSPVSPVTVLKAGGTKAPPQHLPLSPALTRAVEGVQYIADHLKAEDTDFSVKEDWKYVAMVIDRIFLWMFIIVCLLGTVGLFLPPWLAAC
T1 sequence (P12390 25-500): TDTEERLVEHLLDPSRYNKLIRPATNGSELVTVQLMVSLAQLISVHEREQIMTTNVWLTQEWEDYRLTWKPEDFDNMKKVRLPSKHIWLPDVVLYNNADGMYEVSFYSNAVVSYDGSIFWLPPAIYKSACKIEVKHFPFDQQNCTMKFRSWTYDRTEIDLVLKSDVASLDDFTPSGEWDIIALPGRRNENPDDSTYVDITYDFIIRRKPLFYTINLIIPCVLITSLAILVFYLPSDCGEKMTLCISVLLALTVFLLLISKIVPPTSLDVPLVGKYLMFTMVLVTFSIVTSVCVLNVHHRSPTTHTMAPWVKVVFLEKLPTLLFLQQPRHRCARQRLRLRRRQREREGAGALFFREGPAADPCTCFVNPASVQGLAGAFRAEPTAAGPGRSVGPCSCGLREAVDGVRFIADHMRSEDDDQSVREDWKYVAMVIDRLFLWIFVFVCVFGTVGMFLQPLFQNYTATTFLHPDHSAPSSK
Sequence of A2B2 (P12389 28-511): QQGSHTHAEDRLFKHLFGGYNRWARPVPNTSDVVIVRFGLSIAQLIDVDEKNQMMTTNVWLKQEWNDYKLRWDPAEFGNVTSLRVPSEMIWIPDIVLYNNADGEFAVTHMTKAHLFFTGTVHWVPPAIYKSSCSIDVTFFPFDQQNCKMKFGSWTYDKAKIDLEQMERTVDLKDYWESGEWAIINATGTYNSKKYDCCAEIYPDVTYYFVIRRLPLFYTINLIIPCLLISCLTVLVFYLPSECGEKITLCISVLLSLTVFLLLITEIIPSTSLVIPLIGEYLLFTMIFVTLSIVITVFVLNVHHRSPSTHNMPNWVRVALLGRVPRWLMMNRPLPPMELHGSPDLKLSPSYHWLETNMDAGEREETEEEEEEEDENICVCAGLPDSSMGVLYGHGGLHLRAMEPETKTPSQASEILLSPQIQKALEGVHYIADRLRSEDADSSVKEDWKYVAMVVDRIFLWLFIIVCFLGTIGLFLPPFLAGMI
Sequence of A2B2 (P12390 25-500): as the sequence (P12390 25-500) above

OCCCN1CCCC2CC1c1cc(-c3ccc(C(F)(F)F)cc3)ccc12 (racemic) [UKH-1114, (±)-9-(4-(Trifluoromethyl)phenyl)-3,4,5,6-tetrahydro-1,6-methanobenzo[c]azocin-2(1H)-yl)propan-1-ol]
inhibition of radioligand binding (Ki column, footnote a) (A4B2 [1]): ^a (<50% inhibition of radioligand binding at 10 μM) | inhibition of radioligand binding (Ki column, footnote a) (A2B2): ^a (<50% inhibition of radioligand binding at 10 μM) | inhibition of radioligand binding (Ki column, footnote a) (A4B2 [2]): ^a (<50% inhibition of radioligand binding at 10 μM) | inhibition of radioligand binding (Ki column, footnote a) (Beta2): ^a (<50% inhibition of radioligand binding at 10 μM) | inhibition of radioligand binding (Ki column, footnote a) (H3): ^a (<50% inhibition of radioligand binding at 10 μM) | inhibition of radioligand binding (Ki column, footnote a) (A3B2): ^a (<50% inhibition of radioligand binding at 10 μM) | Ki (AMPA): > 10 µM | inhibition of radioligand binding (Ki column, footnote a) (Alpha1c): ^a (<50% inhibition of radioligand binding at 10 μM) | inhibition of radioligand binding (Ki column, footnote a) (MOR): ^a (<50% inhibition of radioligand binding at 10 μM) | inhibition of radioligand binding (Ki column, footnote a) (M3): ^a (<50% inhibition of radioligand binding at 10 μM) | inhibition of radioligand binding (Ki column, footnote a) (A7): ^a (<50% inhibition of radioligand binding at 10 μM) | inhibition of radioligand binding (Ki column, footnote a) (5HT2A): ^a (<50% inhibition of radioligand binding at 10 μM) | inhibition of radioligand binding (Ki column, footnote a) (Alpha1b): ^a (<50% inhibition of radioligand binding at 10 μM) | inhibition of radioligand binding (Ki column, footnote a) (Beta3): ^a (<50% inhibition of radioligand binding at 10 μM) | inhibition of radioligand binding (Ki column, footnote a) (H1): ^a (<50% inhibition of radioligand binding at 10 μM) | inhibition of radioligand binding (Ki column, footnote a) (Alpha2a): ^a (<50% inhibition of radioligand binding at 10 μM) | Ki (V1B): > 10 µM | inhibition of radioligand binding (Ki column, footnote a) (SERT): ^a (<50% inhibition of radioligand binding at 10 μM) | inhibition of radioligand binding (Ki column, footnote a) (DOR): ^a (<50% inhibition of radioligand binding at 10 μM) | Ki (KOR): 1.38 µM | inhibition of radioligand binding (Ki column, footnote a) (PBR): ^a (<50% inhibition of radioligand binding at 10 μM)
